Experimental data taken from paper PMC8162746 (Cancer chemotherapy and pharmacology, 2021).
“And” between values parts separate entries of the source, which are not always exact repeats. Equal values may be shown once. “Also recorded” adds a separate entry of the source.

Tested on: patients with primary CNS and advanced solid tumors
Assay: Phase I dose-escalation trial of oral AR-42: safety and tolerability
Assay type: in vivo
[1] = 17 patients evaluable for toxicity

CC(C)[C@H](C(=O)Nc1ccc(C(=O)NO)cc1)c1ccccc1 [AR-42]
Treatment-related deaths (17 patients): no treatment-related deaths | Grade 3 TRAE anemia [1]: 2 n | Grade 3 TRAE anorexia [1]: 1 n | Grade 3 TRAE hematuria [1]: 1 n | Grade 3 TRAE hypophosphatemia [1]: 3 n | Grade 3 TRAE lymphopenia [1]: 3 n | Grade 3 TRAE nausea [1]: 2 n | Grade 3 TRAE thrombocytopenia [1]: 5 n | Grade 3 TRAE venous thromboembolism [1]: 1 n | Grade 3 TRAE weight loss [1]: 1 n | Cardiac toxicity observed (QTc prolongation) (17 patients, event at 30 mg): one patient with a grade 1 QTc prolongation; also recorded: one patient who experienced a grade 1 QTc prolongation | Anemia, treatment-related adverse event, All grades (N=17, 30-80 mg): 10 n (%) and 10 (58.8%) n (%) | Anemia, treatment-related adverse event, Grade 1–2 (N=17, 30-80 mg): 8 (47.1%) n (%) | Anemia, treatment-related adverse event, Grade 3–4 (N=17, 30-80 mg): 2 (11.8%) n (%) | Anorexia, treatment-related adverse event, All grades (N=17, 30-80 mg): 5 (29.4%) n (%) | Anorexia, treatment-related adverse event, Grade 1–2 (N=17, 30-80 mg): 4 (23.5%) n (%) | Anorexia, treatment-related adverse event, Grade 3–4 (N=17, 30-80 mg): 1 (5.9%) n (%) | Constipation, treatment-related adverse event, All grades (N=17, 30-80 mg): 4 (23.5%) n (%) | Constipation, treatment-related adverse event, Grade 1–2 (N=17, 30-80 mg): 4 (23.5%) n (%) | Cough, treatment-related adverse event, All grades (N=17, 30-80 mg): 2 (11.8%) n (%) | Cough, treatment-related adverse event, Grade 1–2 (N=17, 30-80 mg): 2 (11.8%) n (%) | Dehydration, treatment-related adverse event, All grades (N=17, 30-80 mg): 2 (11.8%) n (%) | Dehydration, treatment-related adverse event, Grade 1–2 (N=17, 30-80 mg): 2 (11.8%) n (%) | Diarrhea, treatment-related adverse event, All grades (N=17, 30-80 mg): 6 n (%) and 6 (35.3%) n (%) | Diarrhea, treatment-related adverse event, Grade 1–2 (N=17, 30-80 mg): 6 (35.3%) n (%) | Dizziness, treatment-related adverse event, All grades (N=17, 30-80 mg): 4 (23.5%) n (%) | Dizziness, treatment-related adverse event, Grade 1–2 (N=17, 30-80 mg): 4 (23.5%) n (%) | Dry mouth, treatment-related adverse event, All grades (N=17, 30-80 mg): 3 (17.6%) n (%) | Dry mouth, treatment-related adverse event, Grade 1–2 (N=17, 30-80 mg): 3 (17.6%) n (%) | Dysgeusia, treatment-related adverse event, All grades (N=17, 30-80 mg): 3 (17.6%) n (%) | Dysgeusia, treatment-related adverse event, Grade 1–2 (N=17, 30-80 mg): 3 (17.6%) n (%) | Elevated alkaline phosphatase, treatment-related adverse event, All grades (N=17, 30-80 mg): 4 (23.5%) n (%) | Elevated alkaline phosphatase, treatment-related adverse event, Grade 1–2 (N=17, 30-80 mg): 4 (23.5%) n (%) | Elevated creatinine, treatment-related adverse event, All grades (N=17, 30-80 mg): 8 n (%) and 8 (47.1%) n (%) | Elevated creatinine, treatment-related adverse event, Grade 1–2 (N=17, 30-80 mg): 8 (47.1%) n (%) | Fatigue, treatment-related adverse event, All grades (N=17, 30-80 mg): 11 (64.7%) n (%) | Fatigue, treatment-related adverse event, Grade 1–2 (N=17, 30-80 mg): 11 (64.7%) n (%) | Headache, treatment-related adverse event, All grades (N=17, 30-80 mg): 3 (17.6%) n (%) | Headache, treatment-related adverse event, Grade 1–2 (N=17, 30-80 mg): 3 (17.6%) n (%) | Hematuria, treatment-related adverse event, All grades (N=17, 30-80 mg): 1 (5.9%) n (%) | Hematuria, treatment-related adverse event, Grade 3–4 (N=17, 30-80 mg): 1 (5.9%) n (%) | Hypermagnesemia, treatment-related adverse event, All grades (N=17, 30-80 mg): 2 (11.8%) n (%) | Hypermagnesemia, treatment-related adverse event, Grade 1–2 (N=17, 30-80 mg): 2 (11.8%) n (%) | Hypernatremia, treatment-related adverse event, All grades (N=17, 30-80 mg): 2 (11.8%) n (%) | Hypernatremia, treatment-related adverse event, Grade 1–2 (N=17, 30-80 mg): 2 (11.8%) n (%) | Hypersomnia, treatment-related adverse event, All grades (N=17, 30-80 mg): 2 (11.8%) n (%) | Hypersomnia, treatment-related adverse event, Grade 1–2 (N=17, 30-80 mg): 2 (11.8%) n (%) | Hypoalbuminemia, treatment-related adverse event, All grades (N=17, 30-80 mg): 5 (29.4%) n (%) | Hypoalbuminemia, treatment-related adverse event, Grade 1–2 (N=17, 30-80 mg): 5 (29.4%) n (%) | Hyponatremia, treatment-related adverse event, All grades (N=17, 30-80 mg): 3 (17.6%) n (%) | Hyponatremia, treatment-related adverse event, Grade 1–2 (N=17, 30-80 mg): 3 (17.6%) n (%) | Hypophosphatemia, treatment-related adverse event, All grades (N=17, 30-80 mg): 7 n (%) and 7 (41.2%) n (%) | Hypophosphatemia, treatment-related adverse event, Grade 1–2 (N=17, 30-80 mg): 4 (23.5%) n (%) | Hypophosphatemia, treatment-related adverse event, Grade 3–4 (N=17, 30-80 mg): 3 (17.6%) n (%) | Impaired concentration, treatment-related adverse event, All grades (N=17, 30-80 mg): 3 (17.6%) n (%) | Impaired concentration, treatment-related adverse event, Grade 1–2 (N=17, 30-80 mg): 3 (17.6%) n (%) | Leukopenia, treatment-related adverse event, All grades (N=17, 30-80 mg): 8 n (%) and 8 (47.1%) n (%) | Leukopenia, treatment-related adverse event, Grade 1–2 (N=17, 30-80 mg): 8 (47.1%) n (%) | Limb edema, treatment-related adverse event, All grades (N=17, 30-80 mg): 2 (11.8%) n (%) | Limb edema, treatment-related adverse event, Grade 1–2 (N=17, 30-80 mg): 2 (11.8%) n (%) | Lymphopenia, treatment-related adverse event, All grades (N=17, 30-80 mg): 7 n (%) and 7 (41.2%) n (%) | Lymphopenia, treatment-related adverse event, Grade 1–2 (N=17, 30-80 mg): 4 (23.5%) n (%) | Lymphopenia, treatment-related adverse event, Grade 3–4 (N=17, 30-80 mg): 3 (17.6%) n (%) | Myalgia, treatment-related adverse event, All grades (N=17, 30-80 mg): 4 (23.5%) n (%) | Myalgia, treatment-related adverse event, Grade 1–2 (N=17, 30-80 mg): 4 (23.5%) n (%) | Nausea, treatment-related adverse event, All grades (N=17, 30-80 mg): 10 n (%) and 10 (58.8%) n (%)
